Reference: patent US20250197372A1 (priority 2020, published 2025)

What was measured:
[1] = target: T1, recombinant human GBA (beta-glucocerebrosidase) (Homo sapiens, UniProt P04062); test: Beta-glucocerebrosidase (GBA, glucosylceramidase) assay (4-methylumbelliferyl-beta-D-pyranoside substrate, fluorescence); type: biochemical
T1 sequence (P04062 40-536): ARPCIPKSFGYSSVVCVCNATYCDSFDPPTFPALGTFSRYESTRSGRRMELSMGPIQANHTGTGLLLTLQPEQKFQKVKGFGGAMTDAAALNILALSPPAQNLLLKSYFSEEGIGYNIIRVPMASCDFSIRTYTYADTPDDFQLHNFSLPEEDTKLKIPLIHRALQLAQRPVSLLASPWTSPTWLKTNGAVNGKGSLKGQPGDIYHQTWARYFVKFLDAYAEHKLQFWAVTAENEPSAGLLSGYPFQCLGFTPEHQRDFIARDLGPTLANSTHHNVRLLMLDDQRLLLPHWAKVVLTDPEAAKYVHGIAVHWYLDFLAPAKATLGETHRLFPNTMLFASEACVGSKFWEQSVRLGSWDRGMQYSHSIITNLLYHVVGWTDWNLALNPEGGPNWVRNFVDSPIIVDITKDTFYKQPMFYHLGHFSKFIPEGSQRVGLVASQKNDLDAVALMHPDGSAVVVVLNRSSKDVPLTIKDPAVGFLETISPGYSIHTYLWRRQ
How it was run: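 Recombinant human GBA preincubated with compound dilutions 60 min at 37 °C, then 4-methylumbelliferyl-beta-D-pyranoside added for 60 min at 37 °C. Stopped at pH 10 (glycine/NaOH); fluorescence ex 365/em 440 nm. IC50 from 4-PL fit of inhibition relative to untreated enzyme.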

[2] = target: rat sucrase (partially purified alpha-glucosidase from intestinal rat powder) (Rattus norvegicus, UniProt P23739); test: Intestinal alpha-glucosidase assay, sucrose substrate (Glucose GO Kit); type: biochemical
How it was run: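 Enzyme from intestinal rat powder, partially purified, is exposed to compound for 60 min at 37 °C. Disaccharide substrate (maltose or sucrose respectively) then reacts 30 min at 37 °C. Heat-stopped samples are assayed for glucose, and percent inhibition versus concentration gives IC50 via 4-PL.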

Sequence of rat sucrase (partially purified alpha-glucosidase from intestinal rat powder) (P23739 whole entry): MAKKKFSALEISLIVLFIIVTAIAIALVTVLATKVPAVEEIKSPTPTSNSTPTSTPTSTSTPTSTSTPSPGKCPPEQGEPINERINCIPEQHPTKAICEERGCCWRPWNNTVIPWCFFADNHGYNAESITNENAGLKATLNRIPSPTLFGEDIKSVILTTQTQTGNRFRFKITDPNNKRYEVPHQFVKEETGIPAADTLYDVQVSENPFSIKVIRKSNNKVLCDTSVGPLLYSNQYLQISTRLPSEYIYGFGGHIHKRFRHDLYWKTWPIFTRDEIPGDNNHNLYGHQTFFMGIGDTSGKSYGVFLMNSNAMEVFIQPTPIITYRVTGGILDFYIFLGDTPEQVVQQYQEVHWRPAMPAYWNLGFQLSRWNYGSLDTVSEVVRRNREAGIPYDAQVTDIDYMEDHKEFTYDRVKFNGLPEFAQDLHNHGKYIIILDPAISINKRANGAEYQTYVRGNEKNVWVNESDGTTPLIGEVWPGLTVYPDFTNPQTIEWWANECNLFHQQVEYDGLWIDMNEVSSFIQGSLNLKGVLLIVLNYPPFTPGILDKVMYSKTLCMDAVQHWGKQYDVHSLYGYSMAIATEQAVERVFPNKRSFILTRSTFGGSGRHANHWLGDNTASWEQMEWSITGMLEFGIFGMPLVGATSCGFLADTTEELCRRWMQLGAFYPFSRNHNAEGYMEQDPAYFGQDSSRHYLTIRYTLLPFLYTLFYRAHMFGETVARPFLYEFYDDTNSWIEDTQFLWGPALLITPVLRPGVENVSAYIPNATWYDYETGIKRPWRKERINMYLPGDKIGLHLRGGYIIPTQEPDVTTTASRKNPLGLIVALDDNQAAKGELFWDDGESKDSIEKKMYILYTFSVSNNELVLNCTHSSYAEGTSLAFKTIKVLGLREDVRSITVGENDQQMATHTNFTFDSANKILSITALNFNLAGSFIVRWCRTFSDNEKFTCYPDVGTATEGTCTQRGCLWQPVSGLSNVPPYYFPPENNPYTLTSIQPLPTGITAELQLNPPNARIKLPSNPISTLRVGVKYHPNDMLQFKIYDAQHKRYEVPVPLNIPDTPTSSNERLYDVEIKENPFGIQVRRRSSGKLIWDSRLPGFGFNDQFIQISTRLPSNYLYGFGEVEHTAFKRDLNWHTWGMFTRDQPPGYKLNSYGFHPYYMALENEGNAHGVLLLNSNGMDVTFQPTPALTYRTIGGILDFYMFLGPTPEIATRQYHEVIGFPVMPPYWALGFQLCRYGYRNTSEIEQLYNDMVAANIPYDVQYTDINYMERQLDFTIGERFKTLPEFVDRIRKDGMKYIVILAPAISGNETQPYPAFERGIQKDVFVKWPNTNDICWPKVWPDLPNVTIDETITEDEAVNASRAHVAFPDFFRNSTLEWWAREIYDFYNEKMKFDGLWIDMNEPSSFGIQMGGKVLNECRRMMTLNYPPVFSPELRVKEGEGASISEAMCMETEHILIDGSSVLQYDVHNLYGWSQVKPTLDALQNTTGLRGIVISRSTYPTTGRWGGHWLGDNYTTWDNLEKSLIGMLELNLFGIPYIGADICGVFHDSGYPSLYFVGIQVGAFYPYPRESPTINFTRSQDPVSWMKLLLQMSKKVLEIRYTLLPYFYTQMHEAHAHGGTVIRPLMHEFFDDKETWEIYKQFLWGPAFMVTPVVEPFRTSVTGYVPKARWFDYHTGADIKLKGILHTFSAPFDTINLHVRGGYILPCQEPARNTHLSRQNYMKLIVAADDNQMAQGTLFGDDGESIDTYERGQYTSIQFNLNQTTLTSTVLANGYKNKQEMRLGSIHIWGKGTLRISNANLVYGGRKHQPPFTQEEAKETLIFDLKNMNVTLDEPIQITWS

OC[C@@H]1[C@@H](O)[C@H](O)[C@@H](O)CN1CCCCCCNc1ccc(-c2ncccn2)cc1F [Compound 1229, (2R,3R,4R,5S)-1-(6-{[2-fluoro-4-(pyrimidin-2-yl)phenyl]amino}hexyl)-2-(hydroxymethyl)piperidine-3,4,5-triol]
IC50 [1]: 0.959 µM
IC50 [2]: 0.07 µM

N#Cc1cc(Br)cc(NCc2cccc(CN3C[C@H](O)[C@@H](O)[C@H](O)[C@H]3CO)c2)c1 [Compound 1023, 3-bromo-5-{[(3-{[(2R,3R,4R,5S)-3,4,5-trihydroxy-2-(hydroxymethyl)piperidin-1-yl]methyl}phenyl)methyl]amino}benzonitrile]
IC50 [1]: 91.1 µM
IC50 [2]: 0.066 µM

[N-]=[N+]=Nc1ccc(NCCNS(=O)(=O)NCCN2C[C@H](O)[C@@H](O)[C@H](O)[C@H]2CO)c([N+](=O)[O-])c1 [Compound 1275, (2R,3R,4R,5S)-1-{2-[({2-[(4-azido-2-nitrophenyl)amino]ethyl}sulfamoyl)amino]ethyl}-2-(hydroxymethyl)piperidine-3,4,5-triol]
IC50 [1]: 2.17 µM
IC50 [2]: 0.413 µM

Cc1cc(NCc2ccc(CN3C[C@H](O)[C@@H](O)[C@H](O)[C@H]3CO)cc2)cc(-c2ccco2)c1 [Compound 1317, (2R,3R,4R,5S)-1-{[4-({[3-(furan-2-yl)-5-methylphenyl]amino}methyl)phenyl]methyl}-2-(hydroxymethyl)piperidine-3,4,5-triol]
IC50 [1]: 45.1 µM
IC50 [2]: < 0.001 µM

[N-]=[N+]=Nc1ccc(NCCOC(=O)NCCN2C[C@H](O)[C@@H](O)[C@H](O)[C@H]2CO)c([N+](=O)[O-])c1 [Compound 1268, 2-[(4-azido-2-nitrophenyl)amino]ethyl N-{2-[(2R,3R,4R,5S)-3,4,5-trihydroxy-2-(hydroxymethyl)piperidin-1-yl]ethyl}carbamate]
IC50 [1]: 1.52 µM
IC50 [2]: 0.363 µM

OC[C@@H]1[C@@H](O)[C@H](O)[C@@H](O)CN1Cc1cccc(CNc2ccc(Br)cc2)c1 [Compound 1027, (2R,3R,4R,5S)-1-[(3-{[(4-bromophenyl)amino]methyl}phenyl)methyl]-2-(hydroxymethyl)piperidine-3,4,5-triol]
IC50 [1]: 75.7 µM
IC50 [2]: 0.023 µM

N#Cc1cc(-c2ncccn2)ccc1NCCCCCCN1C[C@H](O)[C@@H](O)[C@H](O)[C@H]1CO [Compound 1256, 5-(pyrimidin-2-yl)-2-({6-[(2R,3R,4R,5S)-3,4,5-trihydroxy-2-(hydroxymethyl)piperidin-1-yl]hexyl}amino)benzonitrile]
IC50 [1]: 1.23 µM
IC50 [2]: 0.088 µM

COc1ccc(-c2ccc(CCCN3C[C@H](O)[C@@H](O)[C@H](O)[C@H]3CO)cc2)cc1 [Compound 1305, (2R,3R,4R,5S)-2-(hydroxymethyl)-1-(3-{4′-methoxy-[1,1′-biphenyl]-4-yl}propyl)piperidine-3,4,5-triol]
IC50 [1]: 7.86 µM
IC50 [2]: 1.01 µM

[N-]=[N+]=Nc1ccc(NCCc2ccccc2CCN2C[C@H](O)[C@@H](O)[C@H](O)[C@H]2CO)c([N+](=O)[O-])c1 [Compound 1249]
IC50 [1]: 0.32 µM
IC50 [2]: 1.87 µM

O=[N+]([O-])c1cc(Br)ccc1NCc1ccc(CN2C[C@H](O)[C@@H](O)[C@H](O)[C@H]2CO)cc1 [Compound 1030, (2R,3R,4R,5S)-1-[(4-{[(4-bromo-2-nitrophenyl)amino]methyl}phenyl)methyl]-2-(hydroxymethyl)piperidine-3,4,5-triol]
IC50 [1]: 32.3 µM
IC50 [2]: < 0.001 µM

Cc1cc(NCc2ccc(CN3C[C@H](O)[C@@H](O)[C@H](O)[C@H]3CO)cc2)cc(-n2nccn2)c1 [Compound 1316, (2R,3R,4R,5S)-2-(hydroxymethyl)-1-{[4-({[3-methyl-5-(2H-1,2,3-triazol-2-yl)phenyl]amino}methyl)phenyl]methyl}piperidine-3,4,5-triol]
IC50 [1]: > 100 µM
IC50 [2]: 0.014 µM

CN(C)Cc1ccc(NCCCCCCN2C[C@H](O)[C@@H](O)[C@H](O)[C@H]2CO)c(C#N)c1 [Compound 1257, 5-[(dimethylamino)methyl]-2-({6-[(2R,3R,4R,5S)-3,4,5-trihydroxy-2-(hydroxymethyl)piperidin-1-yl]hexyl}amino)benzonitrile]
IC50 [1]: 6.53 µM
IC50 [2]: 0.07 µM

NC(=O)CCN(CCNc1ccc(-c2ncccn2)cc1[N+](=O)[O-])CCN1C[C@H](O)[C@@H](O)[C@H](O)[C@H]1CO [Compound 1226, 3-[(2-{[2-nitro-4-(pyrimidin-2-yl)phenyl]amino}ethyl)({2-[(2R,3R,4R,5S)-3,4,5-trihydroxy-2-(hydroxymethyl)piperidin-1-yl]ethyl})amino]propanamide]
IC50 [1]: 3.21 µM
IC50 [2]: 0.793 µM

[N-]=[N+]=Nc1ccc(NCCN2CCN(CCN3C[C@H](O)[C@@H](O)[C@H](O)[C@H]3CO)CC2)c([N+](=O)[O-])c1 [Compound 1273, (2R,3R,4R,5S)-1-[2-(4-{2-[(4-azido-2-nitrophenyl)amino]ethyl}piperazin-1-yl)ethyl]-2-(hydroxymethyl)piperidine-3,4,5-triol]
IC50 [1]: 2.98 µM
IC50 [2]: 21.6 µM

O=[N+]([O-])c1cc(Br)ccc1NCc1cccc(CN2C[C@H](O)[C@@H](O)[C@H](O)[C@H]2CO)c1 [Compound 1029, (2R,3R,4R,5S)-1-[(3-{[(4-bromo-2-nitrophenyl)-amino]methyl}phenyl)methyl]-2-(hydroxymethyl)piperidine-3,4,5-triol]
IC50 [1]: 52.3 µM
IC50 [2]: < 0.001 µM

COc1ccc(-c2ccc(CN3C[C@H](O)[C@@H](O)[C@H](O)[C@H]3CO)cc2)cc1 [Compound 1306, (2R,3R,4R,5S)-2-(hydroxymethyl)-1-({4′-methoxy-[1,1′-biphenyl]-4-yl}methyl)piperidine-3,4,5-triol]
IC50 [1]: > 100 µM
IC50 [2]: < 0.01 µM

COc1cc(-c2ncccn2)ccc1NCCCCCCN1C[C@H](O)[C@@H](O)[C@H](O)[C@H]1CO [Compound 1231, (2R,3R,4R,5S)-2-(hydroxymethyl)-1-(6-{[2-methoxy-4-(pyrimidin-2-yl)phenyl]amino}hexyl)piperidine-3,4,5-triol]
IC50 [1]: 2.11 µM
IC50 [2]: 0.067 µM

OC[C@@H]1[C@@H](O)[C@H](O)[C@@H](O)CN1Cc1cccc(CNc2cc(-c3ncccn3)cc(C3CC3)c2)n1 [Compound 1333, (2R,3R,4R,5S)-1-{[6-({[3-cyclopropyl-5-(pyrimidin-2-yl)phenyl]amino}methyl)pyridin-2-yl]methyl}-2-(hydroxymethyl)piperidine-3,4,5-triol]
IC50 [1]: > 100 µM
IC50 [2]: 1.59 µM

CS(=O)(=O)c1cc(Br)cc(NCc2ccc(CN3C[C@H](O)[C@@H](O)[C@H](O)[C@H]3CO)cc2)c1 [Compound 1025, (2R,3R,4R,5S)-1-[(4-{[(3-bromo-5-methanesulfonylphenyl)amino]methyl}phenyl)methyl]-2-(hydroxymethyl)piperidine-3,4,5-triol]
IC50 [1]: 38.9 µM
IC50 [2]: 0.002 µM

OC[C@@H]1[C@@H](O)[C@H](O)[C@@H](O)CN1CCCCCCNc1ccc(-c2ncccn2)cc1Cl [Compound 1228, (2R,3R,4R,5S)-1-(6-{[2-chloro-4-(pyrimidin-2-yl)phenyl]amino}hexyl)-2-(hydroxymethyl)piperidine-3,4,5-triol]
IC50 [1]: 0.838 µM
IC50 [2]: 0.061 µM

N#Cc1ccc(NCCCCCCN2C[C@H](O)[C@@H](O)[C@H](O)[C@H]2CO)c([N+](=O)[O-])c1 [Compound 1304, 3-nitro-4-({6-[(2R,3R,4R,5S)-3,4,5-trihydroxy-2-(hydroxymethyl)piperidin-1-yl]hexyl}amino)benzonitrile]
IC50 [1]: 0.043 µM
IC50 [2]: 0.06 µM

Cc1cc(NCc2ccc(CN3C[C@H](O)[C@@H](O)[C@H](O)[C@H]3CO)cc2)cc(-n2ccnn2)c1 [Compound 1323, (2R,3R,4R,5S)-2-(hydroxymethyl)-1-{[4-({[3-methyl-5-(1H-1,2,3-triazol-1-yl)phenyl]amino}methyl)phenyl]methyl}piperidine-3,4,5-triol]
IC50 [1]: > 100 µM
IC50 [2]: 0.037 µM

Cc1cc(NCc2cccc(CN3C[C@H](O)[C@@H](O)[C@H](O)[C@H]3CO)n2)cc(-c2ncccn2)c1 [Compound 1322, (2R,3R,4R,5S)-2-(hydroxymethyl)-1-{[6-({[3-methyl-5-(pyrimidin-2-yl)phenyl]amino}methyl)pyridin-2-yl]methyl}piperidine-3,4,5-triol]
IC50 [1]: 99 µM
IC50 [2]: 0.481 µM

[N-]=[N+]=Nc1ccc(NCCN2CC(OCCN3C[C@H](O)[C@@H](O)[C@H](O)[C@H]3CO)C2)c([N+](=O)[O-])c1 [Compound 1271, (2R,3R,4R,5S)-1-{2-[(1-{2-[(4-azido-2-nitrophenyl)amino]ethyl}azetidin-3-yl)oxy]ethyl}-2-(hydroxymethyl)piperidine-3,4,5-triol]
IC50 [1]: 1.9 µM
IC50 [2]: 0.266 µM

OC[C@@H]1[C@@H](O)[C@H](O)[C@@H](O)CN1Cc1ccc(CNc2ccc(Br)cc2)cc1 [Compound 1028, (2R,3R,4R,5S)-1-[(4-{[(4-bromophenyl)amino]methyl}phenyl)methyl]-2-(hydroxymethyl)piperidine-3,4,5-triol]
IC50 [1]: 12.9 µM
IC50 [2]: 0.011 µM
